This note sets out measurements from ChEMBL document CHEMBL2303647, “Data associated with the publication PLoS ONE, 8(3), e57888, (2013) PMID: 23505445. Compounds: GSK PKIS; Assays: NIH NCATS”.

One may read the AC50 as the concentration giving half of the maximal activity seen.

In experiment [1] the target is T1, Coelenterazine h 2-monooxygenase (Renilla reniformis, UniProt P27652).
T1 sequence (P27652 whole entry): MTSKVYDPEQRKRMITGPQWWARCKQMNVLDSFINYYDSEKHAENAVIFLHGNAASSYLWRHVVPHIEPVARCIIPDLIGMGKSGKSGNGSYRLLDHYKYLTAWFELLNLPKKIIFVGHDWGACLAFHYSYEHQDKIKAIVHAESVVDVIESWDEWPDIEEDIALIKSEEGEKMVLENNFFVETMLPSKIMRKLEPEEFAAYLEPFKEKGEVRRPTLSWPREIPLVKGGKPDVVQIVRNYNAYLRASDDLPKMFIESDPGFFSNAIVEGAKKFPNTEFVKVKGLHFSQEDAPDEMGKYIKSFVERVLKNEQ
Description: GSK_PKIS: Inhibition of Sea Pansy Luciferase (Data from PubChem: AID 652015) [NIH NCATS]

The target of experiment [2] is Luciferin 4-monooxygenase (Photinus pyralis, UniProt P08659).
Chain of Luciferin 4-monooxygenase (P08659 whole entry): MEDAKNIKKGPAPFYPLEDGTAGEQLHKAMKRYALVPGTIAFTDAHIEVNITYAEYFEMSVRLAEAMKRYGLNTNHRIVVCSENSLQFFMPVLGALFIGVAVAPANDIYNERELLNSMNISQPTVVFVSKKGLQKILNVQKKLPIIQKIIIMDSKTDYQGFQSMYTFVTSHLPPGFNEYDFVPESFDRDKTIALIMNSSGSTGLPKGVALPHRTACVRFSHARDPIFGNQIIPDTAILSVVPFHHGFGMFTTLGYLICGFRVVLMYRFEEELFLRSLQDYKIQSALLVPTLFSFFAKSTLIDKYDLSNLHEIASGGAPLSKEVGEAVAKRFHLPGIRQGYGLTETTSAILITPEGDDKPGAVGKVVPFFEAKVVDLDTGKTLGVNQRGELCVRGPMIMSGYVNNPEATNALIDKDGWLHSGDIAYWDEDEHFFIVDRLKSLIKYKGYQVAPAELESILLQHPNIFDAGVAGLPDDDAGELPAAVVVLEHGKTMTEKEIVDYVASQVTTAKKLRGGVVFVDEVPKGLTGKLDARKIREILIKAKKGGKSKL
Description: GSK_PKIS: Inhibition of Firefly Luciferase (Data from PubChem: AID 652016) [NIH NCATS]

In the case of `NC(=O)c1sc(-n2cnc3cc(C(F)(F)F)ccc32)cc1OCc1ccccc1Br` [GW853609X], the AC50 entry in experiment [1] and in experiment [2] was “Phenotype: Inactive; Curve_Description: None” each time.

For the compound `COc1ccc(-c2oc3ncnc(N)c3c2-c2ccc(NC(=O)Nc3cc(C(F)(F)F)ccc3F)cc2)cc1.Cl` [GW768505A], the AC50 entry in experiment [1] and in experiment [2] was “Phenotype: Inactive; Curve_Description: None” each time.

`COc1cc2ncn(-c3cc(OCc4ccccc4Cl)c(C(N)=O)s3)c2cc1OC` [GW852849X]: the AC50 entry in experiment [1] and in experiment [2] was “Phenotype: Inactive; Curve_Description: None” each time.

Regarding `NS(=O)(=O)c1ccc(-c2cc3ccncc3cc2OCc2ccccc2)cc1` [GSK-953913A], the AC50 in experiment [1] (read-out: AC50) is 5.8 µM; in experiment [2] it was “Phenotype: Inactive; Curve_Description: None”.

`CCCN1CCCC(c2ccc(Nc3nc(Nc4cc(F)ccc4C(N)=O)c4cc[nH]c4n3)c(OC)c2)C1` (stereo not drawn) [GSK-1173862A]: the AC50 was 32.6 µM in experiment [1] (read-out: AC50) and “Phenotype: Inactive; Curve_Description: None” in experiment [2].

Turning to `N#Cc1ccc2c(-c3ccnc(NC4CC4)n3)c(-c3ccc(F)cc3)nn2c1` [GW561436X], the AC50 entry in experiment [1] is “Phenotype: Inactive; Curve_Description: None”; in experiment [2] (read-out: AC50), 46.1 µM.

For `COc1ccc(-c2nn3ncccc3c2-c2ccnc(Nc3ccc(F)c(F)c3)n2)cc1` [GW827396X], the AC50 entry in experiment [1] and in experiment [2] was “Phenotype: Inactive; Curve_Description: None” each time.

For the compound `CS(=O)(=O)CCNCc1ccc(-c2ccc3ncnc(Nc4ccc(OCc5ccccc5)c(Cl)c4)c3c2)o1.Cl` [GW574783B], the AC50 entry in experiment [1] was “Phenotype: Inactive; Curve_Description: None”; in experiment [2] (read-out: AC50), 20.6 µM.

Turning to `CN(c1ccc(NC(=O)Nc2c(Cl)cccc2Cl)cc1)c1ccnc(Nc2cccc(CS(C)(=O)=O)c2)n1` [GW809897X], the AC50 entry in experiment [1] is “Phenotype: Inactive; Curve_Description: None”; in experiment [2] (read-out: AC50), 0.58 µM.

`Fc1ccc(-c2ncn(C3CCNCC3)c2-c2ccnc(Oc3ccc(Oc4ccccc4)cc3)n2)cc1`: the AC50 is 20.6 µM in experiment [1] (read-out: AC50) and “Phenotype: Inactive; Curve_Description: None” in experiment [2].

As to `c1cnn2ncc(-c3ccnc(NCCCN4CCOCC4)n3)c2c1` [GW683109X], the concentration at half-maximal activity (AC50) result was “Phenotype: Inactive; Curve_Description: None” in experiment [1] and 41.1 µM in experiment [2] (read-out: AC50).

Take `O=C1Nc2ccc(-c3cccnc3)cc2C1=Cc1cc(Br)c(O)c(Br)c1` [GW429374A]: the AC50 in experiment [1] (read-out: AC50) stood at 18.3 µM; in experiment [2] (read-out: AC50) it was 32.6 µM.

`Cc1cc(O)cc(C)c1/C=C/c1cncc(C(=O)OC(C)(C)C)c1` [GW439255X]: the AC50 result in experiment [1] and in experiment [2] was “Phenotype: Inactive; Curve_Description: None” in each case.

In the case of `CNC(=O)c1sc(-n2cnc3cc(OC)c(OC)cc32)cc1OCc1ccccc1C(F)(F)F` [GSK-1030061A], the half-maximal activity concentration (AC50) result in experiment [1] and in experiment [2] was “Phenotype: Inactive; Curve_Description: None” each time.

On to `COc1ccc2c(-c3ccnc(Nc4cccc(OC(F)(F)F)c4)n3)cnn2n1` [GW810372X], for which the AC50 result in experiment [1] is listed as “Phenotype: Activator; Curve_Description: None”; in experiment [2], “Phenotype: Inactive; Curve_Description: None”.

Take `Cl.c1ccc(Oc2ccc(Nc3ncc(-c4ccccc4)o3)cc2)cc1` [GW641155A]: the AC50 entry in experiment [1] and in experiment [2] was “Phenotype: Inactive; Curve_Description: None” throughout.

For `CCn1c(-c2nonc2N)nc2c(C#CC(C)(C)O)ncc(OC[C@@H]3CCCN3)c21.O=C(O)C(F)(F)F` [GSK-614526A], the AC50 is 18.3 µM in experiment [1] (read-out: AC50) and “Phenotype: Inactive; Curve_Description: None” in experiment [2].

Consider `Fc1cccc(COc2ccc(Nc3ncnc4sc(-c5cccs5)cc34)cc2Cl)c1` [GW684626B], for which the AC50 result in experiment [1] and in experiment [2] was “Phenotype: Inactive; Curve_Description: None” each time.

As for `COc1ccc2ncnc(Nc3ccc(OCc4ccccc4)cc3)c2c1.Cl`, the figures for the AC50 in experiment [1] (read-out: AC50) and in experiment [2] were 0.0007 µM and “Phenotype: Inactive; Curve_Description: None”, respectively.

Turning to `Nc1ccc(C#Cc2cncnc2Nc2ccc(OCc3cccc(F)c3)c(Cl)c2)cc1` [GW659893X], the AC50 result in experiment [1] is “Phenotype: Inactive; Curve_Description: None”; in experiment [2] (read-out: AC50) it was 20.6 µM.

As to `CCNC(=O)O[C@H]1CN[C@H](C#Cc2cc3ncnc(Nc4ccc(OCc5cccc(F)c5)c(Cl)c4)c3s2)C1` [GSK-192082A], the AC50 entry in experiment [1] and in experiment [2] was “Phenotype: Inactive; Curve_Description: None” throughout.

In the case of `CCc1cccc(CC)c1/C=C/c1cncc(C(=O)NC)c1` [GW450241X], the AC50 entry in experiment [1] is “Phenotype: Inactive; Curve_Description: None”; in experiment [2] (read-out: AC50) it was 36.6 µM.

With `Cl.O=C(Nc1ccc(Oc2ccc3[nH]c(NC(=O)c4ccco4)nc3c2)cc1)Nc1cc(C(F)(F)F)ccc1F` [GW683134A], the results for the AC50 result in experiment [1] and in experiment [2] (read-out: AC50) were “Phenotype: Inactive; Curve_Description: None” and 20.6 µM, respectively.

As for `Cl.NS(=O)(=O)c1ccc(N/N=C2\C(=O)Nc3cccc(CCc4ccncc4)c32)cc1` [GW352430A], the AC50 entry in experiment [1] and in experiment [2] was “Phenotype: Inactive; Curve_Description: None” each time.

`Clc1ccc(-c2nn3ncccc3c2-c2ccnc(Nc3ccccc3)n2)cc1` [GW829055X]: the AC50 entry in experiment [1] and in experiment [2] was “Phenotype: Inactive; Curve_Description: None” in each case.

As for `Cc1cccc(-c2n[nH]cc2-c2ccc3ncccc3n2)n1` [GW786460X], the half-maximal activity concentration (AC50) entry in experiment [1] and in experiment [2] was “Phenotype: Inactive; Curve_Description: None” each time.

As for `COc1ccccc1-c1cc(/C=C2\C(=O)Nc3ncc(Br)cc32)cc(Br)c1O` [GW442130X], the AC50 in experiment [1] (read-out: AC50) worked out at 8.19 µM; in experiment [2] (read-out: AC50), 41.1 µM.

On to `CN1CCC(n2cnc(-c3ccc(F)cc3)c2-c2ccnc(NCCO)n2)CC1`, for which the results for the AC50 result in experiment [1] and in experiment [2] (read-out: AC50) were “Phenotype: Inactive; Curve_Description: None” and 36.6 µM, respectively.

`Cc1ccc(NC(=O)CC2CC2)cc1-c1ccc(C(=O)NCC2CC2)cc1` [GW796920X]: the results for the AC50 entry in experiment [1] and in experiment [2] (read-out: AC50) were “Phenotype: Inactive; Curve_Description: None” and 18.3 µM, respectively.

Consider `N#Cc1c(NC(=O)c2ccc(F)cc2)sc2c1CCCC2`, for which the AC50 entry was “Phenotype: Inactive; Curve_Description: None” in experiment [1] and 0.919 µM in experiment [2] (read-out: AC50).

Consider `Clc1ccc(CNc2nccc(-c3cnn4ncccc34)n2)cc1` [GW781673X], for which the AC50 result in experiment [1] and in experiment [2] was “Phenotype: Inactive; Curve_Description: None” throughout.

With `NS(=O)(=O)c1ccc(Nc2cc(-c3ccc(O)c(F)c3)n[nH]2)cc1` [GW831091X], the AC50 in experiment [1] (read-out: AC50) was 36.6 µM; in experiment [2] it was “Phenotype: Inactive; Curve_Description: None”.

Regarding `O=C(O[C@H]1CN[C@H](C#Cc2cc3ncnc(Nc4ccc(OCc5cccc(F)c5)c(Cl)c4)c3s2)C1)N1CCOCC1` [GW869810X], the AC50 result is “Phenotype: Inactive; Curve_Description: None” in experiment [1] and 20.6 µM in experiment [2] (read-out: AC50).

Turning to `Fc1ccc(-c2cc(-c3c[nH]nc3-c3ccccn3)ccn2)cc1` [GW680975X], the AC50 entry in experiment [1] and in experiment [2] was “Phenotype: Inactive; Curve_Description: None” in each case.

For the compound `COc1cccc(-n2ncc3c(N/N=C/c4ccc(S(C)(=O)=O)cc4)ncnc32)c1` [PYRAZOLOPYRIMIDINE 2], the figures for the AC50 entry in experiment [1] and in experiment [2] (read-out: AC50) were “Phenotype: Inactive; Curve_Description: None” and 18.3 µM, respectively.

In the case of `O=C1NC(=O)C(N2CCc3ccccc32)=C1c1ccc(Cl)cc1`, the values for the half-maximal activity concentration (AC50) in experiment [1] (read-out: AC50) and in experiment [2] (read-out: AC50) were 20.6 µM and 6.51 µM, respectively.

On to `CCn1c(-c2nonc2N)nc2ccncc21`, for which the AC50 entry in experiment [1] and in experiment [2] was “Phenotype: Inactive; Curve_Description: None” in each case.

For the compound `Nc1ncnc2occ(-c3ccc(NC(=O)Nc4cccc(C(F)(F)F)c4)cc3)c12` [GW795493X], the AC50 result in experiment [1] and in experiment [2] was “Phenotype: Inactive; Curve_Description: None” each time.

With `Cc1ccc(NC(=O)c2ccoc2)cc1-c1ccc(C(=O)NCC2CC2)cc1` [GW743024X], the AC50 result in experiment [1] is “Phenotype: Inactive; Curve_Description: None”; in experiment [2] (read-out: AC50), 41.1 µM.

On to `Cc1cc(O)cc(C)c1/C=C/c1cncc(C(N)=O)c1` [GW435821X], for which the AC50 result in experiment [1] and in experiment [2] was “Phenotype: Inactive; Curve_Description: None” each time.

Regarding `CS(=O)(=O)CCNCc1cc(-c2cc3c(Nc4ccc(OCc5cccc(F)c5)c(Cl)c4)ncnc3s2)cs1` [GSK-300014A], the figures for the AC50 entry in experiment [1] and in experiment [2] were “Phenotype: Activator; Curve_Description: None” and “Phenotype: Inactive; Curve_Description: None”, respectively.

In the case of `Fc1ccc(-c2ncn(C3CCNCC3)c2-c2ccnc(Oc3ccc4c(c3)OCO4)n2)cc1`, the AC50 result was “Phenotype: Inactive; Curve_Description: None” in experiment [1] and 32.6 µM in experiment [2] (read-out: AC50).

As for `CN1CCC(C(=O)Nc2n[nH]c3nc(-c4ccc(O)cc4)c(Br)cc23)CC1`, the AC50 in experiment [1] (read-out: AC50) is 32.6 µM; in experiment [2] it was “Phenotype: Inactive; Curve_Description: None”.

Turning to `CC1(C)CC(n2cnc(-c3ccc(F)cc3)c2-c2ccnc(N)n2)CC(C)(C)N1`, the values for the AC50 entry in experiment [1] and in experiment [2] (read-out: AC50) were “Phenotype: Inactive; Curve_Description: None” and 41.1 µM, respectively.
